Test system: HER2 receptor
Test: Western blot assay for HER2 targeting
Assay type: cell-based
Conditions: BT474, 1 h; 1 μM DOX, 0.02 μM III, 1 μM Herceptin
Experimental: Western Blot Analysis—BT474 cells (50,000 cells/mL) were seeded in a 6-well cell culture plate and incubated in 1 mL of Gibco® RPMI 1640 medium supplemented with 10% fetal bovine serum (FBS) and 1% antibiotic-antimycotic mix antibiotic supplement at 37° C. for 24 h in a 5% CO2 atmosphere. […] The cells were washed with 1 mL 1×PBS buffer, and treated with 150 μL Cellstripper® non-enzymatic cell dissociation solution. After centrifugation at 500×g for 3 min, the cell pellets were washed with 150 μL 1×PBS buffer and treated with 60 μL, of 1×RIPA lysis buffer containing protease and phosphatase inhibitor cocktail (Sigma-Aldrich). After three cycle of freeze, thaw and sonication following by centrifugation at 15,000×g for 2 min at 4° C., the clear supernatant was collected.
Total protein concentration was measured using a BCA kit (Thermo Fisher Scientific). NuPAGE LDS Sample Buffer (4×) and NuPAGE Reducing Agent (10×) was added to the lysate which was denatured at 70° C. for 5 min. Equal amounts of lysates (25 μg) were loaded on a 4%-12% SDS-polyacrylamide Bis-Tris gels (Invitrogen) according to the manufacturer's recommendations and then proteins were transferred to nitrocellulose membranes. […]

COc1cccc2c1C(=O)c1c(O)c3c(c(O)c1C2=O)C[C@@](O)(C(=O)CO)C[C@@H]3O[C@H]1C[C@H](N)[C@H](O)[C@H](C)O1 [DOX, doxorubicin]
level of phosphorylated HER2 (Y1221/1222): did not change
